Data taken from patent US9120749B2, “Quinoline derivatives and MELK inhibitors containing the same” (ONCOTHERAPY SCIENCE, INC., priority 2010, dated 2015).
Where a name gives a salt, the structure may show the parent alone. Read-outs that look alike come from different tables or passages of the source.

How the values were obtained:
22Rv1 cells = test: Cell-based assay: anti-proliferative activity, Cell Counting Kit-8, 72 hours (22Rv1)
A549 cells = test: Cell-based assay: anti-proliferative activity, Cell Counting Kit-8, 72 hours (A549); settings: 72 hours
How it was run: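 Cell Counting Kit-8 read-out of A549 growth after 72 hours of inhibitor exposure, cells plated in 96-well format. Values reported as IC50.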

HT-1197 cells = test: Cell-based assay: anti-proliferative activity, Cell Counting Kit-8, 72 hours (HT-1197, negative control without MELK expression); settings: HT1197 cells (negative control, no MELK expression), 72 hours
How it was run: (§1)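 Target-specific cytotoxicity: seeded cells treated with MELK inhibitor candidates for 72 h, proliferation quantified via CCK-8, IC50 fitted.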

T47D cells = test: Cell-based assay: anti-proliferative activity, Cell Counting Kit-8, 72 hours (T47D)
How it was run: as §1

DU4475 cells = test: Cell-based assay: anti-proliferative activity, Cell Counting Kit-8, 72 hours (DU4475)
MELK = MELK (Homo sapiens, UniProt Q14680); test: Kinase assay: MELK activity, phosphorylation of FITC-labeled histone H3 peptide measured by IMAP fluorescence polarization; type: biochemical; settings: read-out: IC50 (μM) (kinase assay)
Sequence of MELK (Q14680 whole entry, looked up): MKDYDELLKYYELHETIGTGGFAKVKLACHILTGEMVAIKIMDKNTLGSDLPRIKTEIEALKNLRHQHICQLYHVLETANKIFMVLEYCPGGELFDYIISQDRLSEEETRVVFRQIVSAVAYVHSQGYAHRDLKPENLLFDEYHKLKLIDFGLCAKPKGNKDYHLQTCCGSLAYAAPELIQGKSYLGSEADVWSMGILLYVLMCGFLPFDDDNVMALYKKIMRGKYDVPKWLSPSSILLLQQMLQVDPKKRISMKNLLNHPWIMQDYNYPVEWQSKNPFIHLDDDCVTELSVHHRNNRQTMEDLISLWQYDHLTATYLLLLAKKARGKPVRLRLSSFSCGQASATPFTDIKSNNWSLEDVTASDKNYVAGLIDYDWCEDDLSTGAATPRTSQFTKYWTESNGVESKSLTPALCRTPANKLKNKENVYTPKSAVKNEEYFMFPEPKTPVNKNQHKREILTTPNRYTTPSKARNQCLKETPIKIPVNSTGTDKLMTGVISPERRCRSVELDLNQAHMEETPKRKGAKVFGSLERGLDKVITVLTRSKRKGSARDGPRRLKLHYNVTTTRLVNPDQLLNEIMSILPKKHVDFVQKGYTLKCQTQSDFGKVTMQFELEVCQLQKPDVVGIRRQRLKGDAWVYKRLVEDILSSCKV
How it was run: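 Polarization of fluorescence served as the signal for MELK turnover of FITC-conjugated histone H3 peptide. Binding solution quenched each reaction, and plates stood 0.5 hour at room temperature before reading.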

[1] = MELK kinase assay, IMAP fluorescence polarization, 50 micro-M ATP

| Structure (SMILES) | IC50 (22Rv1 cells; Homo sapiens, 22Rv1, 72 h) [µM] | IC50 (A549 cells; Homo sapiens, A549, 72 h) [µM] | IC50 (HT-1197 cells; Homo sapiens, HT1197, 72 h) [µM] | IC50 (T47D cells; Homo sapiens, T47D, 72 h) [µM] | IC50 (DU4475 cells; Homo sapiens, DU-4475, 72 h) [µM] | IC50 (MELK) [µM] | IC50 (MELK; [1]) [µM] | IC50 (22Rv1 cells; hydrochloride) [µM] | IC50 (A549 cells; hydrochloride) [µM] | IC50 (HT-1197 cells; hydrochloride) [µM] | IC50 (T47D cells; 72 hours, hydrochloride) [µM] | IC50 (DU4475 cells; hydrochloride) [µM] | IC50 (MELK; hydrochloride) [µM] |
| --- | --- | --- | --- | --- | --- | --- | --- | --- | --- | --- | --- | --- | --- |
| COc1cc(-c2ccc3ncc(C(C)=O)c(Nc4ccc(N5CCC(N)C5)nc4)c3c2)cc(Cl)c1O (stereo not drawn) [Example 774, 1-(4-(6-(3-aminopyrrolidin-1-yl)pyridin-3-ylamino)-6-(3-chloro-4-hydroxy-5-methoxyphenyl)quinolin-3-yl)ethanone] | 0.082 | 0.045 | 0.71 | 0.034 | 0.056 | 0.0019 | – | – | – | – | – | – | – |
| CN1CCN(CCc2cccc(Nc3c(C(=O)C4CC4)cnc4ccc(-c5cc(F)c(O)c(Cl)c5)cc34)c2)CC1 [Example 828, (6-(3-chloro-5-fluoro-4-hydroxyphenyl)-4-(3-(2-(4-methylpiperazin-1-yl)ethyl)phenylamino)quinolin-3-yl)(cyclopropyl)methanone] | 0.72 | 0.23 | 9.5 | 5.7 | 0.16 | – | 0.017 | – | – | – | – | – | – |
| CCC(=O)c1cnc2ccc(-c3cc(F)c(O)c(Cl)c3)cc2c1N[C@H]1CC[C@H](CN2CCCC2)CC1 [Example 846] | 0.16 | 0.13 | 0.71 | 0.096 | 0.071 | – | 0.0023 | – | – | – | – | – | – |
| O=C(c1cnc2ccc(-c3cc(F)c(O)c(Cl)c3)cc2c1Nc1cccc(CCN2CCCC2)c1)C1CC1 [Example 799, {6-(3-Chloro-5-fluoro-4-hydroxyphenyl)-4-[3-(2-(pyrrolidin-1-yl)ethyl)phenylamino]quinolin-3-yl}(cyclopropyl)methanone] | 0.25 | 0.081 | 10 | 0.52 | 0.079 | 0.0047 | – | – | – | – | – | – | – |
| CC(=O)c1cnc2ccc(-c3cc(Cl)c(O)c(Cl)c3)cc2c1Nc1cccc(CCN2CCN(C)CC2)c1 [Example 831, 1-(6-(3,5-dichloro-4-hydroxyphenyl)-4-(3-(2-(4-methylpiperazin-1-yl)ethyl)phenylamino)quinolin-3-yl)ethanone] | 0.83 | 0.32 | 11 | 1.1 | 0.12 | – | 0.0054 | – | – | – | – | – | – |
| CC(=O)c1cnc2ccc(-c3cc(Cl)c(O)c(Cl)c3)cc2c1N[C@H]1CC[C@H](CN2CCC(N)C2)CC1 (stereo partly drawn) [Example 779, 1-(4-(1R,4R)-4-((3-aminopyrrolidin-1-yl)methyl)cyclohexylamino)-6-(3,5-dichloro-4-hydroxyphenyl)quinolin-3-yl)ethanone hydrochloride] | 0.23 | 1 | 10 | 0.14 | 0.13 | 0.0017 | – | – | – | – | – | – | – |
| CC(=O)c1cnc2ccc(-c3cc(F)c(O)c(Cl)c3)cc2c1Nc1cnn(C2CCN(C)C2)c1 (stereo not drawn) [Example 813, 1-(6-(3-chloro-5-fluoro-4-hydroxyphenyl)-4-((1-(1-methylpyrrolidin-3-yl)-1H-pyrazol-4-yl)amino)quinolin-3-yl)ethanone dihydrochloride] | 0.11 | 0.25 | 0.75 | 0.07 | 0.054 | – | 0.0021 | – | – | – | – | – | – |
| CC(=O)c1cnc2ccc(-c3cc(Cl)c(O)c(Cl)c3)cc2c1N[C@H]1CC[C@H](N(C)C)CC1 [Example 766, 1-(6-(3,5-dichloro-4-hydroxyphenyl)-4-(trans-4-(dimethylamino)cyclohexylamino)quinolin-3-yl)ethanone hydrochloride] | – | – | – | – | – | – | – | 0.1 | 0.14 | 1 | 0.074 | 0.06 | 0.0017 |
| COc1cc(-c2ccc3ncc(C(C)=O)c(N[C@H]4CC[C@H](CN5CCC[C@@H]5CO)CC4)c3c2)cc(Cl)c1O [Example 811] | 0.45 | 0.28 | 5.4 | 0.49 | 0.38 | 0.0027 | – | – | – | – | – | – | – |
| CN(C)CCN1CCC(Nc2c(C(=O)C3CC3)cnc3ccc(-c4cc(Cl)c(O)c(Cl)c4)cc23)CC1 [Example 819, cyclopropyl(6-(3,5-dichloro-4-hydroxyphenyl)-4-(1-(2-(dimethylamino)ethyl)piperidin-4-ylamino)quinolin-3-yl)methanone] | 0.64 | 0.44 | 3.3 | 0.38 | 0.17 | – | 0.0024 | – | – | – | – | – | – |
| CNC1CCN(c2ccc(Nc3c(C(=O)C4CC4)cnc4ccc(-c5cc(Cl)c(O)c(Cl)c5)cc34)cn2)C1 (stereo not drawn) [Example 804, cyclopropyl(6-(3,5-dichloro-4-hydroxyphenyl)-4-((6-(3-(methylamino)pyrrolidin-1-yl)pyridin-3-yl)amino)quinolin-3-yl)methanone trihydrochloride] | 0.1 | 0.17 | 1.4 | 0.088 | 0.042 | 0.002 | – | – | – | – | – | – | – |
| CC(=O)c1cnc2ccc(-c3cc(F)c(O)c(Cl)c3)cc2c1N[C@H]1CC[C@H](CN2CCCC(N)C2)CC1 (stereo partly drawn) [Example 818] | 0.064 | 0.14 | 2.7 | 0.022 | 0.071 | – | 0.0043 | – | – | – | – | – | – |
| CN1CCN(c2ccc(Nc3c(C(=O)C4CC4)cnc4ccc(-c5cc(F)c(O)c(F)c5)cc34)cn2)CC1 [Example 778, cyclopropyl(6-(3,5-difluoro-4-hydroxyphenyl)-4-(6-(4-methylpiperazin-1-yl)pyridin-3-ylamino)quinolin-3-yl)methanone] | 0.48 | 0.17 | 2.6 | 0.1 | 0.22 | 0.021 | – | – | – | – | – | – | – |
| CC(=O)c1cnc2ccc(-c3cc(Cl)c(O)c(Cl)c3)cc2c1NC1CCN(CCN(C)C)CC1 [Example 823, 1-(6-(3,5-dichloro-4-hydroxyphenyl)-4-(1-(2-(dimethylamino)ethyl)piperidin-4-ylamino)quinolin-3-yl)ethanone] | 0.32 | 0.45 | 2.6 | 0.21 | 0.16 | – | 0.0027 | – | – | – | – | – | – |
| CCC(=O)c1cnc2ccc(-c3cc(Cl)c(O)c(OC)c3)cc2c1Nc1ccc(CN(C)C)cc1 [Example 769, 1-(6-(3-chloro-4-hydroxy-5-methoxyphenyl)-4-(4-((dimethylamino)methyl)phenylamino)quinolin-3-yl)propan-1-one] | 0.79 | 0.48 | 2.8 | 0.12 | 0.14 | 0.0049 | – | – | – | – | – | – | – |
| CC(=O)c1cnc2ccc(-c3cc(F)c(O)c(Cl)c3)cc2c1Nc1cccc(CCN2CCN(C)CC2)c1 [Example 830, 1-(6-(3-chloro-5-fluoro-4-hydroxyphenyl)-4-(3-(2-(4-methylpiperazin-1-yl)ethyl)phenylamino)quinolin-3-yl)ethanone] | 1.3 | 0.73 | 15 | 1.5 | 0.26 | – | 0.019 | – | – | – | – | – | – |
| CN(C)CCN1CCC(Nc2c(C(=O)C3CC3)cnc3ccc(-c4cc(F)c(O)c(Cl)c4)cc23)CC1 [Example 822, (6-(3-chloro-5-fluoro-4-hydroxyphenyl)-4-(1-(2-(dimethylamino)ethyl)piperidin-4-ylamino)quinolin-3-yl)(cyclopropyl)methanone] | 0.43 | 0.48 | 2.5 | 0.29 | 0.16 | – | 0.0031 | – | – | – | – | – | – |
| CCC(=O)c1cnc2ccc(-c3cc(F)c(O)c(Cl)c3)cc2c1Nc1ccc(N2CCCC(N)C2)nc1 (stereo not drawn) [Example 825, 1-(4-(6-(3-aminopiperidin-1-yl)pyridin-3-ylamino)-6-(3-chloro-5-fluoro-4-hydroxyphenyl)quinolin-3-yl)propan-1-one] | 0.016 | 0.017 | 0.069 | 0.01 | 0.018 | – | 0.0018 | – | – | – | – | – | – |
